Reference: patent publication US11566032B2, “Radio-protective and chemo-protective substituted thiols” (TONIX PHARMACEUTICALS, INC., priority 2020, dated 2023)

Columns and labels:
[1] = Phase 1 maximum tolerated dose (MTD) in mice, oral gavage; format: in vivo; settings: 1,000 mg/kg, male mice
Experimental: (§1) Male mice were randomized and assessed in two phases: 1) for maximum tolerated doses (MTDs) of PrC-210, DzCH2SH, and 2Pip-2PrSH to determine dose levels for the efficacy study and 2) to evaluate the efficacy of the compounds when administered 60+5 minutes prior to exposure to total body irradiation (TBI) at an LD100/30 dose (990 cGy) (Tables 1 and 2).
(§2) For Phase 1 or 2, sterile water (vehicle), PrC-210, DzCH2SH, and 2Pip2PrSH were administered at 10 mL/kg calculated based on the most recent body weight via oral gavage. Animals were not fasted prior to administration of the compounds or vehicle. Mice in Phase 1 were administered the dose on Day 1 and mice in Phase 2 were administered the dose 60+5 minutes prior to TBI on Day 0.
(§3) All surviving animals were observed once daily for clinical signs (e.g., unusually low or high activity, lethargy, shivering, appearance of fur, bloody and water stool, and other symptoms of moribundity) at 1-2 hours post-irradiation and/or post-dose and once daily on non-dosing days until Day 4 (Phase 1) or Day 30 (Phase 2).
In Phase 1 (Table 1), all animals were normal when observed and all body weights were within normal range. The dose level of 1000 mg/kg was selected for Phase 2.

[2] = system: male mice exposed to total body irradiation (TBI); experiment: Phase 2 efficacy: survival of mice dosed prior to total body irradiation (TBI) at LD100/30; format: in vivo; settings: for median survival time / animals survived until scheduled sacrifice (Day 30) / mice found dead / mice moribund sacrificed: 1000 mg/kg oral gavage prior to TBI 9.9 Gy; for median survival time: 11 male mice per group; for body weight gain: Days 5 to 9 after TBI 9.9 Gy, compared to the vehicle group; for survival of animals through 30 days post exposure: treated prior to total body irradiation (LD100/30)
Experimental: as §1, §2
Irradiation was administered once to the whole body. TBI of mice were performed using a 6 MV LINAC photon source (TrueBeam STx source). Animals were irradiated at a dose rate of up to 80 cGy/min to the midline of the animals. The source irradiated animals to 50% of the dose from anterior-posterior direction and […] from the posterior-anterior direction. Dose measurements were performed with a PTW 31010 0.1 cc Semiflex Ion chamber.
as §3
In Phase 2 (Table 2), survival curves of mice treated with vehicle, PrC-210, DzCH2SH or 2Pip-PrSH prior to TBI with 9.9 Gy were measured (FIG. 1). […] Five mice were moribund sacrificed, and 6 mice were found dead. Survival in the Group 13 animals was 0% and median survival time was 8 days. In mice administered with PrC-210 before TBI (Group 14), 4 animals survived until scheduled sacrifice (Day 30) while 7 mice were moribund sacrificed. […] In mice administered with DzCH2SH before TBI (Group 15), 3 animals survived until scheduled sacrifice (Day 30) while 7 mice were moribund sacrificed, and one mouse was found dead. […] Five mice were moribund sacrificed and six mice were found dead. Survival in the Group 16 mice was 0% and median survival time was 10 days.

[3] = Exposure of the solid salt to the atmosphere (hygroscopicity); format: physicochemical; settings: 10 minute exposure of a small amount to the atmosphere, diHCl salt
Experimental: Concentration (rotary evaporator at ambient temperature) provided a crude oily residue which was triturated with hexane producing a white solid. The hexane was removed (via pipette suction) and replaced with dry THE (25 ml). After an additional 10 minutes of trituration, the THF was removed and replaced with dry hexane (25 ml). After an additional 10 minutes of trituration, the hexane was removed and the resulting white solid was dried in vacuo over P2O5 providing 1.95 grams of diHCl salt of PrC-210 (88%).
In Reaction J: 34 ml of HCl in methanol, 6 eq. (1.25 M solution, Aldrich Cat #17935) was added to a solution of compound X, 2.5 grams, 0.007 moles dissolved in 10 mL dry methanol in a flask under argon and equipped for magnetic stirring and the reaction was stirred at room temperature for 24 hours. […] The solution was degassed by gently bubbling argon into the solution for 30 minutes. […]
In Reaction P: Compound XVI, 2.2 grams, 0.0058 moles was placed in a round-bottom flask equipped for magnetic stirring followed by 15 mL anhydrous trifluoroacetic acid (CF3COOH, Aldrich #8.08260). The flask was fitted with a condenser and the solution was refluxed for 5 hours whereupon it was determined that the reaction was complete using TLC by observing the disappearance of starting material and the appearance of a highly polar product, which stained positive with ninhydrin. […]

[4] = system: mice exposed to 8 Gy (LD100) radiation; experiment: Protection of mice from lethal radiation (8 Gy, LD100); format: in vivo; settings: oral gavage 15-90 minutes prior to 8 Gy (LD100), 60 days post irradiation
Experimental: The radioprotective efficacy of the thiols, prodrugs and double prodrugs according to this disclosure is assessed in mice. The compounds of the disclosure are administered via oral gavage to mice, and are compared to mice that have been administered 3-(methylamino)-2-(methylaminomethyl)propane-1-thiol (PrC-210), as well as to a control group or mice that are administered vehicle (i.e., containing no radioprotective additive).
More specifically, mice are assigned to three groups (Groups 1, 2 and 3). A control group, Group 1, is treated via oral gavage with vehicle (Lactated Ringer's and 5% dextrose, adjusted to pH 7.3 with sodium bicarbonate) 15-90 minutes prior to a dose of 8 Gy (LD100) radiation. Group 2 is treated via oral gavage with PrC-210, as a positive control, dissolved in Lactated Ringer's at a dose of 200 mg/kg 15-90 minutes prior to irradiation with 8 Gy (LD100). Group 3 is treated via oral gavage with compound 1 (PrC-210-PT) dissolved in Lactated Ringer's at a dose of 308 mg/kg 15-90 minutes prior to irradiation with 8 Gy (LD100). The mortality of the three groups is assessed for 60 days post irradiation. The experiment is repeated with doses of PrC-210 ranging from 200 mg/kg to 450 mg/kg. Molar equivalent dosages of the test compound (compound 1, Prc-210-PT) to PrC-210 are also assessed.
The experiment is repeated to assess the efficacy of compounds 2-23 as radioprotectors.

[5] = system: mice exposed to whole body irradiation; experiment: Radiation dose required to kill 50% of mice (LD50), whole body irradiation; format: in vivo; settings: oral gavage 60 minutes prior to whole body irradiation 2-12 Gy, 30 days
Experimental: The affect of the compounds according to the disclosure on the dose of radiation required to kill 50% of mice (LD50) is assessed.
Mice are assigned to three groups (Groups 1, 2 and 3). A control group, Group 1, is treated via oral gavage with vehicle (Lactated Ringer's and 5% dextrose, adjusted to pH 7.3 with sodium bicarbonate) 60 minutes prior to whole body irradiation (2 Gy). Group 2 is treated via oral gavage with PrC-210, as a positive control, dissolved in Lactated Ringer's at a dose of 200 mg/kg 60 minutes prior to whole body irradiation (2 Gy). Group 3 is treated via oral gavage with compound 1 (PrC-210-PT) dissolved in Lactated Ringer's at a dose of 308 mg/kg 60 minutes prior to whole body irradiation (2 Gy). The mortality of the three groups is assessed for 30 days post irradiation.
The experiment is repeated using varying radiation doses of 4, 6, 8, 10 and 12 Gy. The LD50 for each group was determined.
The experiment is repeated to assess compounds 2-23 as radioprotectors.

[6] = in vivo; cited from earlier work
[7] = clinical signs after TBI 9.9 Gy, of 11 mice

## CC(C)(S)C1CNCCN1 (stereo not drawn) [Compound 2Pip-2PrSH, 2-(piperazin-2-yl)propane-2-thiol]
[1]
  toxicity at the highest tested dose: did not produce any toxicity
[2]; 1000 mg/kg oral gavage 60+5 minutes prior to TBI 9.9 Gy (LD100/30), Day 30, 11 male mice per group
  Survival: 0%
[2]
  median survival time: 10 days
  body weight gain: did not gain body weights
[2]; of 11 mice
  animals survived until scheduled sacrifice (Day 30): no animals survived
  mice found dead: six
  mice moribund sacrificed: Five
[2]; [7]
  Cold to touch skin, number of animals: 4
  Eye discharge, number of animals: one
  Hypoactivity, number of animals: 5
  Lethargy and swollen head, number of mice: one
  Swollen eye, number of animals: one

## SCC1CNCCNC1 [DzCH2SH, (1,4-diazepan-6-yl)methanethiol]
[1]
  toxicity at the highest tested dose: did not produce any toxicity
[2]
  median survival time: 11 days
  body weight gain: did not gain body weights
  survival of animals through 30 days post exposure: increased survival
[2]; of 11 mice
  animals survived until scheduled sacrifice (Day 30): 3
  mice found dead: one
  mice moribund sacrificed: 7
[2]; 1000 mg/kg oral gavage prior to TBI 990 cGy
  mortality rate at 8-days post-irradiation: efficacious effects
[2]; [7]
  Cold to touch skin, number of animals: one
  Eye discharge, number of animals: 2
  Eye opacity, number of mice: one
  Hypoactivity, number of animals: 5
  Labored breathing, number of mice: one
  Lethargy and swollen head, number of mice: one
  Swollen eye, number of animals: 2
  eye cloudy, number of animals: 2
  sunken eye, number of animals: 1
[3]
  signs of hygroscopicity: did not show any signs of hygroscopicity

## CNCC(CS)CNC [PrC-210, 3-(methylamino)-2-((methylamino)methyl)propane-1-thiol, reference compound]
[1]
  toxicity at the highest tested dose: did not produce any toxicity
[2]
  median survival time: 11 days
  body weight gain: significantly higher
  survival of animals through 30 days post exposure: increased survival
[2]; of 11 mice
  animals survived until scheduled sacrifice (Day 30): 4
  mice moribund sacrificed: 7
[2]; Day 9 after TBI 9.9 Gy
  mean body weight: higher than body weights in the Groups 13, 15 and 16
[2]; [7]
  Eye discharge, number of animals: one
  Hypoactivity, number of animals: 5
  Swollen eye, number of animals: one
  Tremor, number of mice: 4
[3]
  signs of hygroscopicity: did not show any signs of hygroscopicity
[4]
  rate of survival, control group versus treated mice: control group demonstrates a reduced rate of survival compared to the mice treated
[5]
  LD50 (radiation dose), control group versus treated mice: control group demonstrates a lower LD50 compared to the mice treated
[6]
  side effects compared with Amifostine: less side effects than Amifostine
